Results: US20080305978A1, “Cleaning compositions containing a hydrophilic fragrance” (S.C. Johnson & Son, Inc., priority 2007, published 2008)

Legend:
[1] = Characteristics of fragrance components in words (vapor pressure, water solubility, oxidation); type: physicochemical
Description: This test evaluated properties of fragrances with different levels of water solubility with regard to their effect on contributing to streaking/blooming.

[2] = Table 5; cited from earlier work

Compound | Characteristics: oxidation ([1]; Table 5, in words) | Characteristics: vapor pressure ([1]; Table 5, in words) | Characteristics: water solubility ([1]; Table 5, in words) | Water Solubility ([1]; Table 6, in words) | Vapor Pressure mm/Hg [2] | Water Solubility ([1]; text b58, in words)
CC(C=O)Cc1ccc(C(C)(C)C)cc1 (stereo not drawn) [Lilial] | (2) Easily oxidized | (1) Low vapor | (3) Low water | Low | 0.004 mm/Hg | –
CCOC(=O)CC1(C)OCCO1 [Applinal = Fructone, Applinal] | – | – | High water | High | – | high
C=CC(C)CCCC(C)(C)O (stereo not drawn) [Dihydromyrcenol] | – | (1) Fairly high | (2) Reasonable | Medium | 0.7 mm/Hg | –
